What is called IC50 is the point on the concentration scale where inhibition reaches its midpoint.

human CXCR3-A receptor, sequence (P49682 whole entry): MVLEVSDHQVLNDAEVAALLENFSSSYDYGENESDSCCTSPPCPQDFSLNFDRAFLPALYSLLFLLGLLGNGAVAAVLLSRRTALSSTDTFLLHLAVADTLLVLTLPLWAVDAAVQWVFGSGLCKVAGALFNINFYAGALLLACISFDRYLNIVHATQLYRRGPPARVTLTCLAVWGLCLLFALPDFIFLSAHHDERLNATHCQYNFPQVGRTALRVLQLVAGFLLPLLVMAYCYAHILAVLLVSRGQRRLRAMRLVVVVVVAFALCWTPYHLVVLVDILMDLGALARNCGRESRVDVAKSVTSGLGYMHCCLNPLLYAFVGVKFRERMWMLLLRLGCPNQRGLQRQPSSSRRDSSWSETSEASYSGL

The assay addresses human CXCR3-A receptor (Homo sapiens (Human), UniProt P49682). As to the kind of experiment: 125I-CXCL10 competition radioligand binding assay. The conditions noted are these: displacement of 125I-CXCL10 from membranes of CHO cells expressing human recombinant CXCR3-A. Summed up: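 Membranes from a recombinant cell line expressing human CXCR3-A (10-20 μg protein) were incubated with 125I-CXCL10 and test compound for 60 min at 25° C, then filtered onto PEI-soaked GF/B filters and gamma-counted. IC50 and Hill slope came from four-parameter nonlinear fitting of competition curves.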
In the case of `COc1cc(CN(C[C@H]2CC[C@H](C(=O)O)CC2)C2CCc3cc(Cl)c(F)cc32)ccc1OCCN1C(=O)CCC1=O` (stereo partly drawn) [Example 98, trans-4-[((5-Chloro-6-fluoro-indan-1-yl)-{4-[2-(2,5-dioxo-pyrrolidin-1-yl)-ethoxy]-3-methoxy-benzyl}-amino)-methyl]-cyclohexanecarboxylic acid], the IC50 was 155 nM.
To `COc1cc(CN(C[C@@H]2CC[C@@H](C(=O)O)C2)[C@@H](C)c2ccc(Cl)cc2)ccc1OCCN1C(=O)CCC1=O` [Example 99, (1R,3R)-3-[([(S)-1-(4-Chloro-phenyl)-ethyl]-{4-[2-(2,5-dioxo-pyrrolidin-1-yl)-ethoxy]-3-methoxy-benzyl}-amino)-methyl]-cyclopentanecarboxylic acid] belongs 223 nM.
To `COc1cc(CN(C[C@H]2CC[C@H](C(=O)O)C2)[C@@H](C)c2ccc(Cl)cc2)ccc1OCCN1C(=O)CCC1=O` [Example 100, (1S,3S)-3-[([(S)-1-(4-Chloro-phenyl)-ethyl]-{4-[2-(2,5-dioxo-pyrrolidin-1-yl)-ethoxy]-3-methoxy-benzyl}-amino)-methyl]-cyclopentanecarboxylic acid] belongs 108 nM; to `COc1cc(CN(C[C@H]2CC[C@@H](C(=O)O)C2)[C@@H](C)c2ccc(Cl)cc2)ccc1OCCN1C(=O)CCC1=O` [Example 101, (1R,3S)-3-[([(S)-1-(4-Chloro-phenyl)-ethyl]-{4-[2-(2,5-dioxo-pyrrolidin-1-yl)-ethoxy]-3-methoxy-benzyl}-amino)-methyl]-cyclopentanecarboxylic acid], 1810 nM.
For `COc1cc(CN(C[C@@H]2CC[C@H](C(=O)O)C2)[C@@H](C)c2ccc(Cl)cc2)ccc1OCCN1C(=O)CCC1=O` [Example 102, (1S,3R)-3-[([(S)-1-(4-Chloro-phenyl)-ethyl]-{4-[2-(2,5-dioxo-pyrrolidin-1-yl)-ethoxy]-3-methoxy-benzyl}-amino)-methyl]-cyclopentanecarboxylic acid], the concentration for half-maximal inhibition (IC50) amounted to 154 nM.
To `COc1cc(CN(C[C@H]2CC[C@@H](C(=O)O)C2)[C@H](C)c2ccc3c(c2)CCO3)ccc1OCCN1C(=O)CCC1=O` [Example 103, (1R,3S)-3-[([(R)-1-(2,3-Dihydro-benzofuran-5-yl)-ethyl]-{4-[2-(2,5-dioxo-pyrrolidin-1-yl)-ethoxy]-3-methoxy-benzyl}-amino)-methyl]-cyclopentanecarboxylic acid] belongs 260 nM; to `COc1cc(CN(C[C@@H]2CC[C@@H](C(=O)O)C2)[C@H](C)c2ccc3c(c2)CCO3)ccc1OCCN1C(=O)CCC1=O` [Example 104, (1R,3R)-3-[([(R)-1-(2,3-Dihydro-benzofuran-5-yl)-ethyl]-{4-[2-(2,5-dioxo-pyrrolidin-1-yl)-ethoxy]-3-methoxy-benzyl}-amino)-methyl]-cyclopentanecarboxylic acid], 15 nM; to `COc1cc(CN(C[C@@H]2CC[C@@H](C(=O)O)C2)[C@@H](C)c2ccc3c(c2)CCO3)ccc1OCCN1C(=O)CCC1=O` [Example 105, (1R,3R)-3-[([(S)-1-(2,3-Dihydro-benzofuran-5-yl)-ethyl]-{4-[2-(2,5-dioxo-pyrrolidin-1-yl)-ethoxy]-3-methoxy-benzyl}-amino)-methyl]-cyclopentanecarboxylic acid], 53 nM.
To `COc1cc(CN(C[C@@H]2CC[C@H](C(=O)O)C2)[C@@H](C)c2ccc3c(c2)CCO3)ccc1OCCN1C(=O)CCC1=O` [Example 106, (1S,3R)-3-[([(S)-1-(2,3-Dihydro-benzofuran-5-yl)-ethyl]-{4-[2-(2,5-dioxo-pyrrolidin-1-yl)-ethoxy]-3-methoxy-benzyl}-amino)-methyl]-cyclopentanecarboxylic acid] belongs 144 nM; to `COc1cc(CN(C[C@H]2CC[C@@H](C(=O)O)C2)[C@@H](C)c2ccc3c(c2)CCO3)ccc1OCCN1C(=O)CCC1=O` [Example 107, (1R,3S)-3-[([(S)-1-(2,3-Dihydro-benzofuran-5-yl)-ethyl]-{4-[2-(2,5-dioxo-pyrrolidin-1-yl)-ethoxy]-3-methoxy-benzyl}-amino)-methyl]-cyclopentanecarboxylic acid], 5130 nM.
`COc1cc(CN(C[C@@H]2CC[C@H](C(=O)O)C2)[C@H](C)c2ccc3c(c2)CCO3)ccc1OCCN1C(=O)CCC1=O` [Example 108, (1S,3R)-3-[([(R)-1-(2,3-Dihydro-benzofuran-5-yl)-ethyl]-{4-[2-(2,5-dioxo-pyrrolidin-1-yl)-ethoxy]-3-methoxy-benzyl}-amino)-methyl]-cyclopentanecarboxylic acid]: the half-maximal inhibitory concentration (IC50) is 190 nM.
To `COc1cc(CN(C[C@H]2CC[C@H](C(=O)O)C2)[C@H](C)c2ccc3c(c2)CCO3)ccc1OCCN1C(=O)CCC1=O` [Example 109, (1S,3S)-3-[([(R)-1-(2,3-Dihydro-benzofuran-5-yl)-ethyl]-{4-[2-(2,5-dioxo-pyrrolidin-1-yl)-ethoxy]-3-methoxy-benzyl}-amino)-methyl]-cyclopentanecarboxylic acid] belongs 73 nM; to `COc1cc(CN(C[C@H]2CC[C@H](C(=O)O)C2)[C@@H](C)c2ccc3c(c2)CCO3)ccc1OCCN1C(=O)CCC1=O` [Example 110, (1S,3S)-3-[([(S)-1-(2,3-Dihydro-benzofuran-5-yl)-ethyl]-{4-[2-(2,5-dioxo-pyrrolidin-1-yl)-ethoxy]-3-methoxy-benzyl}-amino)-methyl]-cyclopentanecarboxylic acid], 525 nM; to `CCOC(=O)[C@@H]1C[C@H]1CN(Cc1ccc(OCCN2C(=O)CCC2=O)c(OC)c1)C(C)c1ccc2c(c1)CCO2` (stereo partly drawn) [Example 111, (1R,2R)-2-[([1-(2,3-Dihydro-benzofuran-5-yl)-ethyl]-{4-[2-(2,5-dioxo-pyrrolidin-1-yl)-ethoxy]-3-methoxy-benzyl}-amino)-methyl]-cyclopropanecarboxylic acid ethyl ester], 646 nM.
Turning to `COc1cc(CN(C[C@@H]2C[C@H]2C(=O)O)C(C)c2ccc3c(c2)CCO3)ccc1OCCN1C(=O)CCC1=O` (stereo partly drawn) [Example 112, (1R,2R)-2-[([1-(2,3-Dihydro-benzofuran-5-yl)-ethyl]-{4-[2-(2,5-dioxo-pyrrolidin-1-yl)-ethoxy]-3-methoxy-benzyl}-amino)-methyl]-cyclopropanecarboxylic acid], the IC50 was determined as 145 nM.
Consider `CCOC(=O)[C@H]1C[C@H]1CN(Cc1ccc(OCCN2C(=O)CCC2=O)c(OC)c1)C(C)c1ccc2c(c1)CCO2` (stereo partly drawn) [Example 113, (1S,2R)-2-[([1-(2,3-Dihydro-benzofuran-5-yl)-ethyl]-{4-[2-(2,5-dioxo-pyrrolidin-1-yl)-ethoxy]-3-methoxy-benzyl}-amino)-methyl]-cyclopropanecarboxylic acid ethyl ester], for which the IC50 was determined as 82 nM.
To `COc1cc(CN(C[C@@H]2C[C@@H]2C(=O)O)C(C)c2ccc3c(c2)CCO3)ccc1OCCN1C(=O)CCC1=O` (stereo partly drawn) [Example 114, (1S,2R)-2-[([1-(2,3-Dihydro-benzofuran-5-yl)-ethyl]-{4-[2-(2,5-dioxo-pyrrolidin-1-yl)-ethoxy]-3-methoxy-benzyl}-amino)-methyl]-cyclopropanecarboxylic acid] belongs 180 nM; to `CCC(c1ccc(Cl)cc1)N(Cc1ccc(OCCN2C(=O)CN(C)C2=O)c(C)c1)C[C@@H]1[C@@H](C(=O)O)C1(C)C` (stereo partly drawn) [Example 115, (1R,3R)-3-[([1-(4-Chloro-phenyl)-propyl]-{3-methyl-4-[2-(3-methyl-2,5-dioxo-imidazolidin-1-yl)-ethoxy]-benzyl}-amino)-methyl]-2,2-dimethyl-cyclopropanecarboxylic acid], 244 nM.
On to `CCC(c1ccc(Cl)cc1)N(Cc1ccc(OCCN2C(=O)CN(C)C2=O)c(OC)c1)C[C@H]1[C@H](C(=O)O)C1(C)C` (stereo partly drawn) [Example 116, (1S,3S)-3-[([1-(4-Chloro-phenyl)-propyl]-{3-methoxy-4-[2-(3-methyl-2,5-dioxo-imidazolidin-1-yl)-ethoxy]-benzyl}-amino)-methyl]-2,2-dimethyl-cyclopropanecarboxylic acid], for which the half-inhibitory concentration (IC50) was determined as 160 nM.
For `CCC(c1ccc(Cl)cc1)N(Cc1ccc(OCCN2C(=O)CCC2=O)c(OC)c1)C[C@H]1[C@H](C(=O)O)C1(C)C` (stereo partly drawn) [Example 117, (1S,3S)-3-[([1-(4-Chloro-phenyl)-propyl]-{4-[2-(2,5-dioxo-pyrrolidin-1-yl)-ethoxy]-3-methoxy-benzyl}-amino)-methyl]-2,2-dimethyl-cyclopropanecarboxylic acid], the IC50 amounted to 71 nM.
To `CCC(c1ccc(Cl)cc1)N(Cc1ccc(OCCN2C(=O)CCC2=O)c(C)c1)C[C@@H]1[C@@H](C(=O)O)C1(C)C` (stereo partly drawn) [Example 118, (1R,3R)-3-[([1-(4-Chloro-phenyl)-propyl]-{4-[2-(2,5-dioxo-pyrrolidin-1-yl)-ethoxy]-3-methyl-benzyl}-amino)-methyl]-2,2-dimethyl-cyclopropanecarboxylic acid] belongs 190 nM.
To `COc1cc(CN(CC2(C(=O)O)CC2)C2CCc3cc(Cl)ccc32)ccc1OCCN1C(=O)CCC1=O` (stereo not drawn) [Example 119, 1-[((5-Chloro-indan-1-yl)-{4-[2-(2,5-dioxo-pyrrolidin-1-yl)-ethoxy]-3-methoxy-benzyl}-amino)-methyl]-cyclopropanecarboxylic acid] belongs 3200 nM; to `COc1cc(CN(C(C)c2ccc3c(c2)CCO3)[C@H]2C[C@H](C(=O)O)C2)ccc1OCCn1c(=O)ccn(C)c1=O` (stereo partly drawn) [Example 120, trans-3-([1-(2,3-Dihydro-benzofuran-5-yl)-ethyl]-{3-methoxy-4-[2-(3-methyl-2,6-dioxo-3,6-dihydro-2H-pyrimidin-1-yl)-ethoxy]-benzyl}-amino)-cyclobutanecarboxylic acid], 2900 nM.
To `COc1cc(CN(C(C)c2ccc3c(c2)CCO3)[C@H]2C[C@@H](C(=O)O)C2)ccc1OCCn1c(=O)ccn(C)c1=O` (stereo partly drawn) [Example 121, cis-3-([1-(2,3-Dihydro-benzofuran-5-yl)-ethyl]-{3-methoxy-4-[2-(3-methyl-2,6-dioxo-3,6-dihydro-2H-pyrimidin-1-yl)-ethoxy]-benzyl}-amino)-cyclobutanecarboxylic acid] belongs 152 nM.

Source of the values: patent US9073853B2, “Cycloalkane carboxylic acid derivatives as CXCR3 receptor antagonists” (Sanofi, priority 2011, dated 2015).
